This note sets out measurements from patent US20230303575A1, “FGFR AND MUTATION INHIBITOR THEREOF, PREPARATION METHOD THEREFOR AND USE THEREOF” (Abbisko Therapeutics Co., Ltd., priority 2020, published 2023).

Common to all, as to type: cell-based
One test concerns the target T1, FGFR3 V555M (Homo sapiens, UniProt P22607, V555M).
T1 construct: P41212 (Transcription factor ETV6)
The test is described as follows: Cell proliferation assay for FGFR3 V555M in BaF3. Particulars: BaF3 cells expressing FGFR3 V555M fusion, 48 hrs, CellTiter Glo. The procedure: (§1) For the compounds of the Examples of the present invention, cell strains of TEL-FGFR3 WT intracellular kinase domain fusion protein or intracellular domain fusion protein containing FGFR3 V555M or FGFR3 N540K mutation were stably expressed in Baf cells by transfection and were used to determine the cell proliferation effect of BaF3-Tel-FGFR3 WT. FGFR3 V555M or FGFR3 N540K. The specific test process was as follows: • 1) The cell suspension was plated into a 96-well plate containing growth medium (DMEM containing 1% Glutamax, 10% FBS and 1% Pen/Strep) at 2000-4000 cells/90 μL/per well, and then the mixture was incubated overnight at 37° C. and 5% CO2. • 2) 10 μL of growth medium containing a 10-fold stock solution of test compound was added to the cell culture (9 dose points, 3× serial dilution, starting from 1 μM, finally 0.3% DMSO). • 3) The mixture was incubated at 37° C. and 5% CO2 for 48 hrs. • 4) 50 μL of CellTiter Glo (CTG) reagent was added to the cell-containing 96-well plate, and the plate was then incubated at room temperature for 10 min. • 5) Relative light units (RLUs) were measured on a microplate reader with a luminescence detection module. RLU values were normalized to % survival, and concentration-response curves were plotted using Prism to calculate IC50 (nM).

In a further test the target is T2, FGFR2 V564L (Homo sapiens, UniProt P21802, V564L).
T2 construct: P41212 (Transcription factor ETV6)
T2 sequence (P21802 481-770 V564L limits assumed): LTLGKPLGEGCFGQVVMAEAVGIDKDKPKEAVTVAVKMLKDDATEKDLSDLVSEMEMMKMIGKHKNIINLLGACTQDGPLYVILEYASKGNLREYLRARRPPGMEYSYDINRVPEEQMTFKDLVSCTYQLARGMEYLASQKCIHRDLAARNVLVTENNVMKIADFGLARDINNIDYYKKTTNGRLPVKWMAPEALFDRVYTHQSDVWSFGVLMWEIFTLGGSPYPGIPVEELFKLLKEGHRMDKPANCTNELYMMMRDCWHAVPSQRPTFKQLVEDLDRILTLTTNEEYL
The test is described as follows: Cell proliferation assay for Tel-FGFR2 V564L in BaF3. Particulars: BaF3 cells expressing FGFR2 V564L fusion, 48 hrs, CellTiter Glo. The procedure:
(§2) By transfection, cell strains of the intracellular kinase domain fusion protein of TEL-FGFR2 WT or the intracellular domain fusion proteins containing FGFR2 V564, V564F, V564L, N549K and K659M mutations were stably expressed in Baf cells. On day 1, the cell suspension was plated into a 96-well plate containing growth medium (DMEM containing 1% Glutamax, 10% FBS and 1% Pen/Strep) at 2000-4000 cells/90 μL/per well, and then the mixture was incubated overnight at 37° C. and 5% CO2. On day 2, 10 μL of growth medium containing a 10-fold stock solution of test compound was added to the cell culture (9 dose points, 3× serial dilution, starting from 1 μM, finally 0.3% DMSO). After incubation at 37° C. and 5% CO2 for 48 hrs, 50 μL of CellTiter Glo (CTG) reagent was added to the cell-containing 96-well plate on day 3, and the plate was then incubated at room temperature for 10 min. Then relative light units (RLUs) were measured on a microplate reader with a luminescence detection module. RLU values were normalized to % survival, and concentration-response curves were plotted using Prism to calculate IC50 (nM).
(In general: ATP-based viability assays read luminescence as a measure of living cells.)

For a further test, the target named is T3, FGFR2 V564I (Homo sapiens, UniProt P21802, V564I).
T3 construct: P41212 (Transcription factor ETV6)
T3 sequence (P21802 481-770 V564I limits assumed): as the sequence (P21802 481-770 V564L limits assumed) above, with L84I counted along it
The test is described as follows: Cell proliferation assay for Tel-FGFR2 V564I in BaF3. The note with it: BaF3 cells expressing FGFR2 V564I fusion, 48 hrs, CellTiter Glo. The procedure: as §2

For a further test, the target named is T4, FGFR2 K659M (Homo sapiens, UniProt P21802, K659M).
T4 construct: P41212 (Transcription factor ETV6)
T4 sequence (P21802 481-770 K659M limits assumed): as the sequence (P21802 481-770 V564L limits assumed) above, with L84V, K179M counted along it
Kind of test: Cell proliferation assay for Tel-FGFR2 K659M in BaF3. Particulars: BaF3 cells expressing FGFR2 K659M fusion, 48 hrs, CellTiter Glo. The procedure: as §2

The target in a further test is T5, FGFR3 N540K (Homo sapiens, UniProt P22607, N540K).
T5 construct: P41212 (Transcription factor ETV6)
T5 sequence (P22607 472-761 N540K limits assumed): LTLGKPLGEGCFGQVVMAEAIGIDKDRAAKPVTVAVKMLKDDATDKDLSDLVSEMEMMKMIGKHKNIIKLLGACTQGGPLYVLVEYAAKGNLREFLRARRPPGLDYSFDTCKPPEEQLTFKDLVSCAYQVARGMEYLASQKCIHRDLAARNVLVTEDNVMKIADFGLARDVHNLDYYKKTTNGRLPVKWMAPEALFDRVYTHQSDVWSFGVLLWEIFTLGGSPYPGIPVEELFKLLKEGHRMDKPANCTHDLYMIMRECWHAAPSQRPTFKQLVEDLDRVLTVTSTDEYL
The test is described as follows: Cell proliferation assay for FGFR3 N540K in BaF3. The note with it: BaF3 cells expressing FGFR3 N540K fusion, 48 hrs, CellTiter Glo. The procedure: as §1

For the next test, the target named is T6, FGFR2 N549K (Homo sapiens, UniProt P21802, N549K).
T6 construct: P41212 (Transcription factor ETV6)
T6 sequence (P21802 481-770 N549K limits assumed): as the sequence (P21802 481-770 V564L limits assumed) above, with N69K, L84V counted along it
Kind of test: Cell proliferation assay for Tel-FGFR2 N549K in BaF3. Particulars: BaF3 cells expressing FGFR2 N549K fusion, 48 hrs, CellTiter Glo. The procedure: as §2

In the next test the target is T7, FGFR2 V564F (Homo sapiens, UniProt P21802, V564F).
T7 construct: P41212 (Transcription factor ETV6)
T7 sequence (P21802 481-770 V564F limits assumed): as the sequence (P21802 481-770 V564L limits assumed) above, with L84F counted along it
The test is described as follows: Cell proliferation assay for Tel-FGFR2 V564F in BaF3. The note with it: BaF3 cells expressing FGFR2 V564F fusion, 48 hrs, CellTiter Glo. The procedure: as §2

Some results are limits rather than exact numbers.

T1 sequence (P22607 472-761 V555M limits assumed): as the sequence (P22607 472-761 N540K limits assumed) above, with K69N, V84M counted along it

What is called IC50 is the concentration that inhibits the measured activity by half. Read a low IC50 as greater potency in that assay. Turning to `C=CC(=O)N1CC[C@H](n2cc(C#Cc3ccc4oc(C5CC5)nc4c3)c3c(N)ncnc32)C1` [Example 1, (S)-1-(3-(4-amino-5-((2-cyclopropylbenzo[d]oxazol-5-yl)ethynyl)-7H-pyrrolo[2,3-d]pyrimidin-7-yl)pyrrolidin-1-yl)prop-2-en-1-one], the IC50 on FGFR3 V555M is 0.5 to 5 nM; against FGFR2 V564L, 0.5 to 5 nM; on FGFR2 V564I, at most 0.5 nM; against FGFR2 K659M, 0.5 to 5 nM; against FGFR3 N540K, 0.5 to 5 nM; against FGFR2 N549K it was 0.5 to 5 nM. The compound further showed an IC50 against FGFR2 V564F of 0.5 to 5 nM.

As to `C=CC(=O)N1CC[C@H](n2nc(C#Cc3ccc4oc(C5CC5)nc4c3)c3c(N)ncnc32)C1` [Example 20, (S)-1-(3-(4-amino-3-((2-cyclopropylbenzo[d]oxazol-5-yl)ethynyl)-1H-pyrazolo [3,4-d]pyrimidin-1-yl)pyrrolidin-1-yl)prop-2-en-1-one], the IC50 is 0.5 to 5 nM on FGFR3 V555M; 0.5 to 5 nM against FGFR2 V564L; at most 0.5 nM at FGFR2 V564I; 5 to 50 nM at FGFR2 K659M; 0.5 to 5 nM at FGFR3 N540K; 0.5 to 5 nM against FGFR2 N549K. The compound further returned an IC50 at FGFR2 V564F of 0.5 to 5 nM.

Regarding `C=CC(=O)N1CC[C@H](n2nc(C#Cc3cc4nc(C5(F)CC5)oc4cc3F)c3c(N)ncnc32)C1` [Example 36], the IC50 against FGFR3 V555M was 0.5 to 5 nM; against FGFR2 V564I, at most 0.5 nM; against FGFR2 K659M, 0.5 to 5 nM; against FGFR2 V564F, at most 0.5 nM.

As to `C=CC(=O)N1CC[C@H](n2cc(C#Cc3ccc4sc(C)nc4c3)c3c(N)ncnc32)C1` [Example 42, (S)-1-(3-(4-amino-5-((2-methylbenzo[d]thiazol-5-yl)ethynyl)-7H-pyrrolo[2,3-d]pyrimidin-7-yl)pyrrolidin-1-yl)prop-2-en-1-one], the IC50 was 5 to 50 nM at FGFR3 V555M; 0.5 to 5 nM against FGFR2 V564L; 5 to 50 nM on FGFR2 K659M; 0.5 to 5 nM against FGFR2 N549K; at most 0.5 nM against FGFR2 V564F.

For `C=CC(=O)N1CC[C@H](n2nc(C#Cc3c(F)cc4sc(C5CC5)nc4c3F)c3c(N)ncnc32)C1` [Example 62, (S)-1-(3-(4-amino-3-((2-cyclopropyl-4,6-difluoro-benzo[d]thiazol-5-yl)ethynyl)-1H-pyrazolo[3,4-d]pyrimidin-1-yl)pyrrolidin-1-yl) prop-2-en-1-one], the IC50 at FGFR3 V555M was 0.5 to 5 nM; at FGFR2 V564L, 0.5 to 5 nM; against FGFR2 V564I, at most 0.5 nM; at FGFR2 K659M it was 5 to 50 nM; on FGFR3 N540K it was 0.5 to 5 nM; against FGFR2 N549K, 0.5 to 5 nM. Besides, the IC50 against FGFR2 V564F was at most 0.5 nM.

In the case of `C=CC(=O)N1CC[C@H](n2nc(C#Cc3c(F)cc4oc(NC)nc4c3F)c3c(N)ncnc32)C1` [Example 67, (S)-1-(3-(4-amino-3-((4,6-difluoro-2-(methylamino)benzo[d]oxazol-5-yl)ethynyl)-1H-pyrazolo[3,4-d]pyrimidin-1-yl)pyrrolidin-1-yl)prop-2-en-1-one], the IC50 at FGFR3 V555M is 0.5 to 5 nM; on FGFR3 N540K it was 5 to 50 nM; at FGFR2 V564F, 0.5 to 5 nM.

`C=CC(=O)N1C[C@@H](n2nc(C#Cc3c(F)cc4sc(C5CC5)nc4c3F)c3c(N)ncnc32)C[C@@H]1COC` [Example 68, 1-((2R,4S)-4-(4-amino-3-((2-cyclopropyl-4,6-difluoro-benzo[d]thiazol-5-yl)ethynyl)-1H-pyrazolo[3,4-d]pyrimidin-1-yl)-2-(methoxy-methyl)pyrrolidin-1-yl) prop-2-en-1-one]: the IC50 on FGFR3 V555M is at most 0.5 nM; at FGFR2 V564L, at most 0.5 nM; on FGFR2 K659M, 0.5 to 5 nM; at FGFR3 N540K it was 0.5 to 5 nM; against FGFR2 N549K, at most 0.5 nM; against FGFR2 V564F it was at most 0.5 nM.

`C=CC(=O)N1C[C@@H](n2nc(C#Cc3c(F)cc4sc(N5CCC5)nc4c3F)c3c(N)ncnc32)C[C@@H]1COC` [Example 69, 1-((2R,4S)-4-(4-amino-3-((2-(azetidin-1-yl)-4,6-difluorobenzo[d]thiazol-5-yl)ethynyl)-1H-pyrazolo[3,4-d]pyrimidin-1-yl)-2-(methoxy-methyl)pyrrolidin-1-yl)prop-2-en-1-one]: the IC50 against FGFR3 V555M is at most 0.5 nM; against FGFR2 V564L, 0.5 to 5 nM; against FGFR2 K659M it was 5 to 50 nM; against FGFR2 N549K it was 0.5 to 5 nM; against FGFR2 V564F it was at most 0.5 nM.

As for `C=CC(=O)N1CC[C@H](n2nc(C#Cc3c(F)cc4oc(N5CCC5)nc4c3F)c3c(N)ncnc32)C1` [Example 74, (S)-1-(3-(4-amino-3-((2-(azetidin-1-yl)-4.6-difluoro-benzo[d]oxazol-5-yl)ethynyl)-1H-pyrazolo[3,4-d]pyrimidin-1-yl)pyrrolidin-1-yl)prop-2-en-1-one], the IC50 on FGFR3 V555M was at most 0.5 nM; against FGFR2 V564L it was 0.5 to 5 nM; against FGFR2 V564I, at most 0.5 nM; against FGFR2 K659M it was 5 to 50 nM; against FGFR3 N540K it was 0.5 to 5 nM; on FGFR2 N549K, 0.5 to 5 nM. In addition, the IC50 at FGFR2 V564F is at most 0.5 nM.

Consider `C=CC(=O)N1CC[C@H](n2cc(C#Cc3c(F)cc4sc(C)nc4c3F)c3c(N)ncnc32)C1` [Example 75, (S)-1-(3-(4-amino-5-((4,6-difluoro-2-methylbenzo[d]thiazol-5-yl)ethynyl)-7H-pyrrolo[2,3-d]pyrimidin-7-yl)pyrrolidin-1-yl)prop-2-en-1-one], for which the IC50 is 0.5 to 5 nM against FGFR3 V555M, at most 0.5 nM on FGFR2 V564I, 0.5 to 5 nM against FGFR2 K659M and 0.5 to 5 nM against FGFR2 V564F.

On to `CN(C)C/C=C/C(=O)N1CC(n2nc(C#Cc3c(F)cc4oc(N5CCC5)nc4c3F)c3c(N)ncnc32)C1` [Example 77, (E)-1-(3-(4-amino-3-((2-(azetidin-1-yl)-4,6-difluorobenzo[d]oxazol-5-yl)ethynyl)-1H-pyrazolo[3,4-d]pyrimidin-1-yl)azetidin-1-yl)-4-(dimethylamino)but-2-en-1-one], for which the IC50 was 0.5 to 5 nM at FGFR3 V555M; 0.5 to 5 nM against FGFR2 V564L; 5 to 50 nM on FGFR2 K659M; 5 to 50 nM at FGFR3 N540K; 0.5 to 5 nM on FGFR2 N549K; at most 0.5 nM against FGFR2 V564F.

With `CN(C)C/C=C/C(=O)N1CC(n2nc(C#Cc3c(F)cc4sc(C5CC5)nc4c3F)c3c(N)ncnc32)C1` [Example 78, (E)-1-(3-(4-amino-3-((2-cyclopropyl-4,6-difluoro-benzo[d]thiazol-5-yl)ethynyl)-1H-pyrazolo[3,4-d]pyrimidin-1-yl)azetidin-1-yl)-4-(dimethylamino)but-2-en-1-one], the IC50 against FGFR3 V555M was at most 0.5 nM; on FGFR2 V564L, 0.5 to 5 nM; at FGFR2 K659M it was 5 to 50 nM; against FGFR3 N540K, 5 to 50 nM; against FGFR2 N549K it was 0.5 to 5 nM; against FGFR2 V564F it was at most 0.5 nM.
